Experiments:
[1] = molecular target: human 5-HT2A serotonin receptor (Homo sapiens (Human), UniProt P28223); test: Radioligand binding ([3H]-ketanserin) to cloned human 5-HT2A receptor expressed in HEK-293 EBNA cells; conditions: membranes of transfected HEK-293 EBNA cells, 1.1 nM [3H]-ketanserin, 1 h at RT
Description: The ability of the compounds to bind to the 5-HT2A, D3 and D2 receptors was determined using radioligand binding to cloned receptors selectively expressed in HEK-293 EBNA cells.
(§1) HEK-293 EBNA cells were transiently transfected with expression plasmids encoding for the human D2 or D3 dopamine- or for the human 5-HT2A serotonin receptor, respectively. The cells were harvested 48 h post-transfection, washed three times with cold PBS and stored at −80° C. prior to use. The pellet was suspended in cold 50 mM Tris-HCl buffer containing 10 mM EDTA (pH 7.4) and homogenized with a Polytron (Kinematica AG, Basel, Switzerland) for 20-30 sec at 12,000 rpm. After centrifugation at 48,000×g for 30 min at 4° C., the pellet was resuspended in cold 10 mM Tris-HCl buffer containing 0.1 mM EDTA (pH 7.4), homogenized, and centrifuged as above. This pellet was further resuspended in a smaller volume of ice cold 10 mM Tris-HCl buffer containing 0.1 mM EDTA (pH 7.4) and homogenized with a Polytron for 20-30 sec at 12,000 rpm. The protein content of this homogenate was determined with the Bio-Rad (Bradford) Protein Assay (Biorad Laboratories GmbH, München, Germany) according to the instructions of the manufacturer using gamma globulin as the standard. This homogenate was stored at −80° C. in aliquots and thawed immediately prior to use.
Aliquots of membrane preparations were thawed at RT, resuspended in assay buffer (D2, D3: 50 mM Tris-HCl, 120 mM NaCl, 5 mM MgCl2, 1 mM EDTA, 5 mM KCl, 1.5 mM CaCl2, pH=7.4; 5-HT2A: 50 mM Tris-HCl, 10 mM MgCl2, 1 mM EGTA, pH=7.4), homogenized with a Polytron for 20-30 sec at 12,000 rpm and adjusted to a final concentration of approximately 7.5 μg protein/well (D2, D3) and 15 μg protein/well (5-HT2A), respectively.
(§2) The binding affinity (Ki) of the compounds was determined using radioligand binding. Membranes were incubated in a total volume of 200 μl with a fixed concentration of radioligand (final concentration approximately 0.7 nM [^3H]-spiperone for D2, 0.5 nM [^3H]-spiperone for D3, and 1.1 nM [^3H]-ketanserin for 5-HT2A) and ten concentrations of test compound in ranging between 10 μM-0.1 nM for 1 h at RT. At the end of the incubation, the reaction mixtures were filtered on to unifilter 96-well white microplates with bonded GF/C filters (Packard BioScience, Zürich, Switzerland; preincubated for 1 h in 0.1% polyethylenimine (PEI) in assay buffer) with a Filtermate 196 harvester (Packard BioScience) and washed 3 times with cold assay buffer. The nonspecific binding was determined with equally composed reaction mixtures in the presence of 10 μM unlabelled spiperone. Per well 45 μl of Microscint 40 (Perkin Elmer, Schwerzenbach, Switzerland) was added, plates for sealed, shaken for 20 min and counted for 3 min on a Topcount Microplate Scintillation Counter (Canberra Packard SA, Zürich, Switzerland) with quenching correction.
(§3) The CPM value for each duplicate of a concentration of competing compound was averaged (y1), then the % specific binding was calculated according to the equation (((y1−non-specific)/(total binding−non-specific))×100). Graphs were plotted with the % specific binding using XLfit, a curve fitting program that iteratively plots the data using Levenburg Marquardt algorithm. The single site competition analysis equation used was y=A+((B−A)/(1+((x/C)^D))), where y is the % specific binding, A is the minimum y, B is the maximum y, C is the IC50, x is the log10 of the concentration of the competing compound and D is the slope of the curve (the Hill Coefficient). From these curves the IC50 (inhibition concentration at which 50% specific binding of the radioligand was displaced) and Hill coefficient were determined. The affinity constant (Ki) was calculated using the Cheng-Prusoff equation Ki=(IC50/1+([L]/Kd), where [L] is the concentration of radioligand and Kd is the dissociation constant of the radioligand at the receptor as determined by the saturation isotherm.

[2] = molecular target: human D3 dopamine receptor (Homo sapiens (Human), UniProt P35462); test: Radioligand binding ([3H]-spiperone) to cloned human D3 receptor expressed in HEK-293 EBNA cells; conditions: membranes of transfected HEK-293 EBNA cells, 0.5 nM [3H]-spiperone, 1 h at RT
Sequence of human D3 dopamine receptor (P35462 whole entry): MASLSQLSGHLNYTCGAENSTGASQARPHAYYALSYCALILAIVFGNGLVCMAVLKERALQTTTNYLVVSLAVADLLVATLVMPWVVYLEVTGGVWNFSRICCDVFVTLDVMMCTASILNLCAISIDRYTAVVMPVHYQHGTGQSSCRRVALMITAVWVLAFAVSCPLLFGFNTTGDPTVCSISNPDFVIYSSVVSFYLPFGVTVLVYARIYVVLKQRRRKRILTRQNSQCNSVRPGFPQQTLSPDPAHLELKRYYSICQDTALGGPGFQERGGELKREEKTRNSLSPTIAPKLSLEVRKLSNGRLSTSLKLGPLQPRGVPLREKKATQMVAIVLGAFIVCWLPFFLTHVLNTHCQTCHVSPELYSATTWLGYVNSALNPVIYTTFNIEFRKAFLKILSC
Description: as §1, with “The pellet was suspended in cold 50 mM Tris-HCl buffer containing 10 mM EDTA (pH 7.4) and homogenized with a Polytron (Kinematica AG, Basel, Switzerland) for 20-30 sec at 12,000 rpm.” left out, “This pellet was further resuspended in a smaller volume of ice cold 10 mM Tris-HCl buffer containing 0.1 mM EDTA (pH 7.4) and homogenized with a Polytron for 20-30 sec at 12,000 rpm.” left out
as §2, §3

| SMILES | Ki [1] [nM] | Ki [2] [nM] |
| --- | --- | --- |
| O=C(CC1CCCO1)N[C@H]1CC[C@H](CCN2CCC(c3noc4cc(Cl)ccc34)CC2)CC1 (stereo partly drawn) [Example 38, N-trans-(4-{2-[4-(6-Chloro-benzo[d]isoxazol-3-yl)-piperidin-1-yl]-ethyl}-cyclohexyl)-2-(tetrahydro-furan-2-yl)-acetamide] | 13 | 9 |
| C[C@@H](O)CC(=O)N[C@H]1CC[C@H](CCN2CCC(c3noc4cc(Cl)ccc34)CC2)CC1 [Example 39, (R)-N-trans (4-{2-[4-(6-Chloro-benzo[d]isoxazol-3-yl)-piperidin-1-yl]-ethyl}-cyclohexyl)-3-hydroxy-butyramide] | 13 | 17 |
| CC1(C)OC[C@H](CC(=O)N[C@H]2CC[C@H](CCN3CCC(c4noc5cc(Cl)ccc45)CC3)CC2)O1 [Example 40, N-trans (4-{2-[4-(6-Chloro-benzo[d]isoxazol-3-yl)-piperidin-1-yl]-ethyl}-cyclohexyl)-2-((S)-2,2-dimethyl-[1,3]dioxolan-4-yl)-acetamide] | 25 | 6 |
| CO[C@H]1CC[C@H](CC(=O)N[C@H]2CC[C@H](CCN3CCC(c4noc5cc(Cl)ccc45)CC3)CC2)C1 [Example 41, N-trans (4-{2-[4-(6-Chloro-benzo[d]isoxazol-3-yl)-piperidin-1-yl]-ethyl}-cyclohexyl)-2-((1S,3S)-3-methoxy-cyclopentyl)-acetamide] | 14 | 10 |
| COC1(C)CCC(CC(=O)N[C@H]2CC[C@H](CCN3CCC(c4noc5cc(Cl)ccc45)CC3)CC2)CC1 (stereo partly drawn) [Example 42, N-trans(4-{2-[4-(6-Chloro-benzo[d]isoxazol-3-yl)-piperidin-1-yl]-ethyl}-cyclohexyl)-2-(4-methoxy-4-methyl-cyclohexyl)-acetamide] | 19 | 8 |
| CO[C@]1(C)CC[C@@H](CC(=O)N[C@H]2CC[C@H](CCN3CCC(c4noc5cc(Cl)ccc45)CC3)CC2)CC1 [Example 42A, N-trans(4-{2-[4-(6-Chloro-benzo[d]isoxazol-3-yl)-piperidin-1-yl]-ethyl}-cyclohexyl)-2-(4-trans-methoxy-4-methyl-cyclohexyl)-acetamide] | 16 | 6 |
| CO[C@]1(C)CC[C@H](CC(=O)N[C@H]2CC[C@H](CCN3CCC(c4noc5cc(Cl)ccc45)CC3)CC2)CC1 [Example 42B, N-trans(4-{2-[4-(6-Chloro-benzo[d]isoxazol-3-yl)-piperidin-1-yl]-ethyl}-cyclohexyl)-2-(4-cis-methoxy-4-methyl-cyclohexyl)-acetamide] | 14 | 4 |
| COC(C)CC(=O)N[C@H]1CC[C@H](CCN2CCC(c3noc4cc(Cl)ccc34)CC2)CC1 (stereo partly drawn) [Example 43, N-trans(4-{2-[4-(6-Chloro-benzo[d]isoxazol-3-yl)-piperidin-1-yl]-ethyl}-cyclohexyl)-3-methoxy-butyramide] | 13 | 10 |
| CO[C@H](C)CC(=O)N[C@H]1CC[C@H](CCN2CCC(c3noc4cc(Cl)ccc34)CC2)CC1 [Example 43A, (R)—N-trans(4-{2-[4-(6-Chloro-benzo[d]isoxazol-3-yl)-piperidin-1-yl]-ethyl}-cyclohexyl)-3-methoxy-butyramide] | 16 | 15 |
| CO[C@@H](C)CC(=O)N[C@H]1CC[C@H](CCN2CCC(c3noc4cc(Cl)ccc34)CC2)CC1 [Example 43B, (S)—N-(4-{2-[4-(6-Chloro-benzo[d]isoxazol-3-yl)-piperidin-1-yl]-ethyl}-cyclohexyl)-3-methoxy-butyramide] | 16 | 6 |
| COC[C@H]1CC[C@H](CC(=O)N[C@H]2CC[C@H](CCN3CCC(c4noc5cc(Cl)ccc45)CC3)CC2)CC1 [Example 44, N-trans-(4-{2-[4-(6-Chloro-benzo[d]isoxazol-3-yl)-piperidin-1-yl]-ethyl}-cyclohexyl)-2-trans (4-methoxymethyl-cyclohexyl)-acetamide] | 19 | 9 |
| CC1(O)CCC(CC(=O)N[C@H]2CC[C@H](CCN3CCC(c4noc5cc(Cl)ccc45)CC3)CC2)CC1 (stereo partly drawn) [Example 45, N-trans(4-{2-[4-(6-Chloro-benzo[d]isoxazol-3-yl)-piperidin-1-yl]-ethyl}-cyclohexyl)-2-(4-hydroxy-4-methyl-cyclohexyl)-acetamide] | 15 | 7 |
| CC(=O)N[C@H]1CC[C@H](CCN2CCC(c3noc4cc(Cl)ccc34)CC2)CC1 [Example 46, N-trans(4-{2-[4-(6-Chloro-benzo[d]isoxazol-3-yl)-piperidin-1-yl]-ethyl}-cyclohexyl)-acetamide] | 23.7 | 8.19 |
| CCS(=O)(=O)N[C@H]1CC[C@H](CCN2CCC(c3noc4cc(F)ccc34)CC2)CC1 [Example 47, Ethanesulfonic acid (4-trans {2-[4-(6-fluoro-benzo[d]isoxazol-3-yl)-piperidin-1-yl]-ethyl}-cyclohexyl)-amide] | 1.66 | 5.85 |
| O=S(=O)(N[C@H]1CC[C@H](CCN2CCC(c3noc4cc(F)ccc34)CC2)CC1)c1ccc(Cl)cc1 [Example 48, 4-Chloro-N-trans (4-{2-[4-(6-fluoro-benzo[d]isoxazol-3-yl)-piperidin-1-yl]-ethyl}-cyclohexyl)-benzenesulfonamide] | 5.13 | 5.87 |
| COc1ccc(S(=O)(=O)N[C@H]2CC[C@H](CCN3CCC(c4noc5cc(F)ccc45)CC3)CC2)cc1 [Example 49, N-trans(4-{2-[4-(6-Fluoro-benzo[d]isoxazol-3-yl)-piperidin-1-yl]-ethyl}-cyclohexyl)-4-methoxy-benzenesulfonamide] | 4.39 | 3.72 |
| N#CCC(=O)N[C@H]1CC[C@H](CCN2CCC(c3noc4cc(Cl)ccc34)CC2)CC1 [Example 51, N-trans-(4-{2-[4-(6-Chloro-benzo[d]isoxazol-3-yl)-piperidin-1-yl]-ethyl}-cyclohexyl)-2-cyano-acetamide] | 23.7 | 8.19 |
| N#CCCC(=O)N[C@H]1CC[C@H](CCN2CCC(c3noc4cc(Cl)ccc34)CC2)CC1 [Example 52, N-trans-(4-{2-[4-(6-Chloro-benzo[d]isoxazol-3-yl)-piperidin-1-yl]-ethyl}-cyclohexyl)-3-cyano-propionamide] | 15.6 | 8.77 |
| O=C(C[C@H]1CCCO1)N[C@H]1CC[C@H](CCN2CCC(c3noc4cc(Cl)ccc34)CC2)CC1 [Example 53, N-trans-(4-{2-[4-(6-Chloro-benzo[d]isoxazol-3-yl)-piperidin-1-yl]-ethyl}-cyclohexyl)-2-(R)-tetrahydro-furan-2-yl-acetamide] | 6.19 | 14.4 |

Source: patent US8829029B2, “Dual modulators of 5HT2A and D3 receptors” (Hoffmann-La Roche Inc., priority 2008, dated 2014)
